# Test results taken from ChEMBL document CHEMBL5608177, “Antitumor activity and transcriptome sequencing (RNA-seq) analyses of hepatocellular carcinoma cells in response to exposure triterpene-nucleoside conjugates” (Eur J Med Chem, 2024).
# Active and inactive are the calls of the source. No cut-off for these calls is given here.
# Key:
# [1] = test system: HeLa; assay: Antiproliferative activity against human HeLa cells assessed as inhibition of cell growth incubated for 48 hrs by CCK-8 reagent based spectrophotometric analysis; format: functional
# [2] = test system: KYSE-150 cell line; assay: Antiproliferative activity against human KYSE-150 cell line assessed as inhibition of cell growth incubated for 48 hrs by CCK-8 reagent based spectrophotometric analysis; format: functional; conditions: KYSE-150, 48 h
# [3] = test system: SMMC-7721; assay: Antiproliferative activity against human SMMC-7721 cells assessed as inhibition of cell growth incubated for 48 hrs by CCK-8 reagent based spectrophotometric analysis; format: functional; conditions: SMMC-7721, 48 h
# [4] = test system: PC-3; assay: Antiproliferative activity against human PC-3 cells assessed as inhibition of cell growth incubated for 48 hrs by CCK-8 reagent based spectrophotometric analysis; format: functional; conditions: PC-3, 48 h
# [5] = test system: HepG2; assay: Antiproliferative activity against human HepG2 cells assessed as inhibition of cell growth incubated for 48 hrs by CCK-8 reagent based spectrophotometric analysis; format: functional; conditions: HepG2, 48 h
# [6] = test system: MCF7; assay: Antiproliferative activity against human MCF7 cells assessed as inhibition of cell growth incubated for 48 hrs by CCK-8 reagent based spectrophotometric analysis; format: functional; conditions: MCF7, 48 h
# [7] = test system: SW-620; assay: Antiproliferative activity against human SW620 cells assessed as inhibition of cell growth incubated for 48 hrs by CCK-8 reagent based spectrophotometric analysis; format: functional; conditions: SW-620, 48 h
# [8] = test system: A549; assay: Antiproliferative activity against human A549 cells assessed as inhibition of cell growth incubated for 48 hrs by CCK-8 reagent based spectrophotometric analysis; format: functional; conditions: A549, 48 h
# [9] = test system: SMMC-7721; assay: Antitumor activity against human SMMC-7721 cells xenografted in BALB/c mouse assessed as inhibition of tumor growth at 25 mg/kg,ip administrated 3 times weekly for 3 weeks relative to control; format: functional; set-up: scale not given: the % may be the effect or the level left
# [10] = test system: SMMC-7721; assay: Antitumor activity against human SMMC-7721 cells xenografted in BALB/c mouse assessed as reduction in tumor weight at 25 mg/kg,ip administrated 3 times weekly for 3 weeks; format: functional, organism-based
# [11] = test system: SMMC-7721; assay: Antitumor activity against human SMMC-7721 cells xenografted in BALB/c mouse assessed as reduction in tumor weight at 25 mg/kg,ip administrated 3 times weekly for 3 weeks (reference value: 0.573 +/- 0.137 g); format: functional
# [12] = test system: SMMC-7721; assay: Antitumor activity against human SMMC-7721 cells xenografted in BALB/c mouse assessed as reduction in tumor growth at 25 mg/kg,ip administrated 3 times weekly for 3 weeks; format: functional, organism-based
# [13] = Aqueous solubility of the compound in […] by HPLC analysis; format: physicochemical
SMILES,IC50 [1],IC50 [3],IC50 [4],IC50 [5],IC50 [6],IC50 [7],IC50 [8],IC50 [2],Activity [9],Activity [10],Activity [11],Activity [12],solubility [13]
C=C(C)[C@@H]1CC[C@]2(C(=O)OC)CC[C@]3(C)[C@H](CC[C@@H]4[C@@]5(C)C[C@@H](Cc6cn([C@]7(CO)O[C@@H](n8ccc(O)nc8=O)[C@H](O)[C@@H]7O)nn6)C(=O)C(C)(C)[C@@H]5CC[C@]43C)[C@@H]12,27.9 µM,40.5 µM,45.5 µM,62.9 µM,55.3 µM,19.1 µM,70.8 µM,36.4 µM,,,,,
C=C(C)[C@@H]1CC[C@]2(C(=O)OC)CC[C@]3(C)[C@H](CC[C@@H]4[C@@]5(C)C[C@@H](Cc6cn([C@]7(CO)O[C@@H](n8ccc(O)nc8=O)[C@H](O)[C@@H]7O)nn6)[C@H](O)C(C)(C)[C@@H]5CC[C@]43C)[C@@H]12,20 µM,37.3 µM,41 µM,44.6 µM,26.6 µM,25.9 µM,53.2 µM,20.3 µM,,,,,
C=C(C)[C@@H]1CC[C@]2(C(=O)OC)CC[C@]3(C)[C@H](CC[C@@H]4[C@@]5(C)C[C@@H](Cc6cn([C@]7(CO)O[C@@H](n8ccc(O)nc8=O)[C@@H](F)[C@@H]7O)nn6)[C@H](O)C(C)(C)[C@@H]5CC[C@]43C)[C@@H]12,15.1 µM,24.5 µM,23.5 µM,37.5 µM,23.3 µM,15.2 µM,36.4 µM,10.7 µM,,,,,
C=C(C)[C@@H]1CC[C@]2(C(=O)OC)CC[C@]3(C)[C@H](CC[C@@H]4[C@@]5(C)C[C@@H](Cc6cn([C@]7(CO)O[C@@H](n8ccc(N)nc8=O)[C@H](O)[C@@H]7O)nn6)C(=O)C(C)(C)[C@@H]5CC[C@]43C)[C@@H]12,40.4 µM,68.5 µM,> 100 µM,> 100 µM,> 100 µM,35.8 µM,> 100 µM,68.7 µM,,,,,
C=C(C)[C@@H]1CC[C@]2(C(=O)OC)CC[C@]3(C)[C@H](CC[C@@H]4[C@@]5(C)C[C@@H](Cc6cn([C@H]7C[C@H](n8cc(C)c(O)nc8=O)O[C@@H]7CO)nn6)[C@H](O)C(C)(C)[C@@H]5CC[C@]43C)[C@@H]12,20.6 µM,32.7 µM,18.1 µM,19.5 µM,39.4 µM,8.75 µM,41.2 µM,7.82 µM,,,,,
Cc1cn([C@H]2C[C@H](N=[N+]=[N-])[C@@H](CO)O2)c(=O)[nH]c1=O [ZIDOVUDINE],> 100 µM,> 100 µM,> 100 µM,> 100 µM,> 100 µM,> 100 µM,20.7 µM,> 100 µM,,,,,
CC(=O)O[C@H]1C(=O)[C@@]2(C)[C@H]([C@H](OC(=O)c3ccccc3)[C@]3(O)C[C@H](OC(=O)[C@H](O)[C@@H](NC(=O)c4ccccc4)c4ccccc4)C(C)=C1C3(C)C)[C@]1(OC(C)=O)CO[C@@H]1C[C@@H]2O [PACLITAXEL],,,,,,,,,61.6%,inactive,0.22 g,inactive,
C=C(C)[C@@H]1CC[C@]2(C(=O)OC)CC[C@]3(C)[C@H](CC[C@@H]4[C@@]5(C)C[C@@H](Cc6cn([C@]7(CO)O[C@@H](n8ccc(N)nc8=O)[C@H](O)[C@@H]7O)nn6)[C@H](O)C(C)(C)[C@@H]5CC[C@]43C)[C@@H]12,46.2 µM,67.3 µM,> 100 µM,85.7 µM,87.6 µM,48.9 µM,> 100 µM,20.7 µM,,,,,
C=C(C)[C@@H]1CC[C@]2(C(=O)O)CC[C@]3(C)[C@H](CC[C@@H]4[C@@]5(C)C[C@@H](Cc6cn([C@]7(CO)O[C@@H](n8ccc(O)nc8=O)[C@@H](F)[C@@H]7O)nn6)[C@H](O)C(C)(C)[C@@H]5CC[C@]43C)[C@@H]12,> 100 µM,> 100 µM,> 100 µM,> 100 µM,> 100 µM,> 100 µM,> 100 µM,> 100 µM,,,,,
C=C(C)[C@@H]1CC[C@]2(C(=O)O)CC[C@]3(C)[C@H](CC[C@@H]4[C@@]5(C)CC[C@H](O)C(C)(C)[C@@H]5CC[C@]43C)[C@@H]12 [BETULINIC ACID],31.3 µM,43.6 µM,> 100 µM,40 µM,54.8 µM,54.3 µM,69.8 µM,23.9 µM,,,,,< 0.11 µM
C=C(C)[C@@H]1CC[C@]2(C(=O)OC)CC[C@]3(C)[C@H](CC[C@@H]4[C@@]5(C)C[C@@H](Cc6cn([C@]7(CO)O[C@@H](n8ccc(N)nc8=O)[C@@H](F)[C@@H]7O)nn6)[C@H](O)C(C)(C)[C@@H]5CC[C@]43C)[C@@H]12,24.1 µM,70.2 µM,> 100 µM,55.8 µM,70.2 µM,18 µM,> 100 µM,29.3 µM,,,,,

# More lines, main results first:
IC50 [1],IC50 [3],IC50 [4],IC50 [5],IC50 [6],IC50 [7],IC50 [8],SMILES,IC50 [2],Activity [9],Activity [10],Activity [11],Activity [12],solubility [13]
> 100 µM,> 100 µM,> 100 µM,> 100 µM,> 100 µM,> 100 µM,> 100 µM,C=C(C)[C@@H]1CC[C@]2(C(=O)O)CC[C@]3(C)[C@H](CC[C@@H]4[C@@]5(C)C[C@@H](Cc6cn([C@]7(CO)O[C@@H](n8ccc(O)nc8=O)[C@H](O)[C@@H]7O)nn6)[C@H](O)C(C)(C)[C@@H]5CC[C@]43C)[C@@H]12,> 100 µM,,,,,
15.3 µM,17 µM,86.2 µM,72.7 µM,62 µM,28.1 µM,> 100 µM,C=C(C)[C@@H]1CC[C@]2(C(=O)O)CC[C@]3(C)[C@H](CC[C@@H]4[C@@]5(C)C[C@@H](Cc6cn([C@]7(CO)O[C@@H](n8ccc(N)nc8=O)[C@H](O)[C@@H]7O)nn6)[C@H](O)C(C)(C)[C@@H]5CC[C@]43C)[C@@H]12,42.4 µM,,,,,
28.2 µM,52.7 µM,> 100 µM,69.9 µM,61.4 µM,31.2 µM,> 100 µM,C=C(C)[C@@H]1CC[C@]2(C(=O)OC)CC[C@]3(C)[C@H](CC[C@@H]4[C@@]5(C)C[C@@H](Cc6cn([C@]7(CO)O[C@@H](n8ccc(N)nc8=O)[C@@H](F)[C@@H]7O)nn6)C(=O)C(C)(C)[C@@H]5CC[C@]43C)[C@@H]12,19.2 µM,,,,,
16.4 µM,15 µM,26.6 µM,38.4 µM,7.01 µM,17.5 µM,64.4 µM,C=C(C)[C@@H]1CC[C@]2(C(=O)O)CC[C@]3(C)[C@H](CC[C@@H]4[C@@]5(C)C[C@@H](Cc6cn([C@H]7C[C@H](n8cc(C)c(O)nc8=O)O[C@@H]7CO)nn6)[C@H](O)C(C)(C)[C@@H]5CC[C@]43C)[C@@H]12,7.53 µM,,,,,
> 100 µM,> 100 µM,> 100 µM,> 100 µM,> 100 µM,> 100 µM,> 100 µM,C=C(C)[C@@H]1CC[C@]2(C(=O)O)CC[C@]3(C)[C@H](CC[C@@H]4[C@@]5(C)C[C@@H](Cc6cn([C@]7(CO)O[C@@H](n8ccc(N)nc8=O)[C@@H](F)[C@@H]7O)nn6)[C@H](O)C(C)(C)[C@@H]5CC[C@]43C)[C@@H]12,> 100 µM,,,,,
